{"source": "patent US8080529B2", "about": "“Macrolides with anti-inflammatory activity” (Glaxo Group Limited, priority 2005, dated 2011)", "key": {"A549": {"system": "A549", "assay": "Cytotoxicity assay (MTT), A549 cell line", "type": "cell-based", "conditions": "24 h", "how_it_was_run": "(§1)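 Hep G2 and A549 cells were cultured 24 h at 37° C in RPM medium with test compounds at 50 μM and 12.5 μM. MTT was added for 0.5-2 h and formazan read at 490 nm. Growth value calculated as OD490 treated/OD490 nontreated ×100.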"}, "Hep G2": {"system": "Hep G2", "assay": "Cytotoxicity assay (MTT), Hep G2 cell line", "type": "cell-based", "conditions": "24 h", "how_it_was_run": "as §1"}, "granulocytes [1]": {"system": "granulocytes", "type": "in vitro ADME", "conditions": "human, 180 min, 10 μM", "experimental": "(§2) Granulocytes were obtained from heparinized whole blood using density gradiant centrifugation. Erythrocytes were sedimented on 3% dextran T-500 (Amersham Pharmacia Biotech AB, Uppsala, Sweden). Leukocytes were centrifuged on Ficoll (Amersham Pharmacia Biotech AB, Uppsala, Sweden) for 35 min at 600 g at 20° C. The pellet of granulocytes was cleared from remaining erythrocytes by a brief hypotonic lysis.\n7.5×10^6 granulocytes, isolated as described above, were suspended in 3 mL of RPMI 1640 (Institute of Immunology, Croatia) containing 10 μM of tested macrolide. Samples were incubated at 37° C. for 180 min. Following incubation, the samples were centrifuged through the layer of Poly(dimethylsiloxane-co-diphenylsiloxane), dihydroxy terminated-silicone oil (Aldrich Chemical Company, Milwaukee, USA). The pellet was resuspended in 0.5% Triton X-100 (Sigma, St. Louis, USA) in deionized water (MilliQ, Millipore Corporation, Bedford, USA). The suspension was sonicated, proteins were precipitated with acetonitrile, and the concentration of macrolide in the supernatants was determined by liquid chromatography-mass spectrometry (LC-MS).\nIntracellular concentrations of the test compounds were calculated from the mean cell number recovered after centrifuging through silicone oil. According to the literature, about 1 million neutrophils is considered to have a volume of 0.24 μL (Vazifeh et al., Antimicrob Agents Chemo. 1997; 41: 2099-2107). To estimate the extent of macrolide accumulation, the intracellular to extracellular concentration ratio (I/E) was calculated, where E (due to a large volume of incubation medium) was taken as constant (10 μM). Results are expressed relative to azithromycin according to the following equation: % of azithromycin uptake =(I/E of a substance/I/E of azithromycin)×100. I/E values obtained for azithromycin were 164±10."}, "IL-8": {"system": "IL-8", "assay": "Inhibition of IL-8 production by stimulated human peripheral blood leukocytes in vitro", "type": "cell-based", "conditions": "Homo sapiens, Leukocyte, read-out: Percentage of inhibition of IL-8 production", "how_it_was_run": "(§3)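 Sandwich ELISA of supernatant cytokines; % inhibition = (1 − sample/stimulated untreated control)×100. Dextran-isolated human PBL were pretreated 2 h with 10 or 50 μM compound, then challenged overnight with LPS (2 μg/mL), PMA (1 μg/mL) or zymosan (120 μg/mL).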"}, "IL-1α": {"system": "IL-1α", "assay": "Inhibition of IL-1 production by stimulated human peripheral blood leukocytes in vitro", "type": "cell-based", "conditions": "Homo sapiens, Leukocyte, read-out: Percentage of inhibition of IL-1α production"}, "TNF-α [2]": {"system": "TNF-α", "assay": "Inhibition of TNF-α production by stimulated human peripheral blood leukocytes in vitro", "type": "cell-based", "conditions": "Homo sapiens, Leukocyte, read-out: Percentage of inhibition of TNF-α production", "how_it_was_run": "as §3"}, "IL-6 [3]": {"system": "IL-6", "assay": "Inhibition of IL-6 production by stimulated human peripheral blood leukocytes in vitro", "type": "cell-based", "conditions": "Homo sapiens, Leukocyte, read-out: Percentage of inhibition of IL-6 production", "how_it_was_run": "as §3"}, "neutrophils": {"system": "neutrophils", "assay": "Lung neutrophilia induced by bacterial lipopolysaccharide in male BALB/cJ mice: cells in BALF and lung tissue", "type": "in vivo", "conditions": "2.5 mg i.p.; 24 hours after LPS", "experimental": "(§4) Male BALB/cJ mice (Iffa Credo, France), with average weight 30 g were randomly grouped (n=7 in testing group, 8 in positive control, 7 in negative control). Mice were administered intraperitoneally (i.p.) a single dose of 5 or 2.5 mg of test compound. Two hours after administration, 2 μg of bacterial lipopolysaccharide (LPS), dissolved in PBS in a volume of 60 μL, was intranasally administered to all experimental groups except the negative control group, which received the same volume (60 μL) of vehicle PBS. Animals were sacrificed approximately 24 hours after application of LPS in order to obtain bronchoalveolar lavage fluid (BALF), which was used to determine concentrations of IL-6 and TNF-α, absolute number of cells, and the percentage of neutrophils in BALF. Results are expressed as percentage of decrease of total cell number, relative number of neutrophils, and TNF-α, and IL-6 concentration in BALF of treated animals compared to positive control (LPS stimulated, but untreated animals).\n(§5) Results are expressed as percentage of decrease of total cell number, relative number of neutrophils, and TNF-alpha and IL-6 concentration in BALF of treated animals compared to positive control (LPS stimulated, but untreated animals).\nBesides accumulation of inflammatory cells in BALF, the extent and anatomic site of pulmonary inflammation induced by LPS was assessed 24 hours after PBS or LPS exposure. Accumulation of granulocytes and mononuclear cells in peribronchial (PB) and perivascular (PV) lung tissue areas and in alveolar spaces was monitored following sacrifice of the animals."}, "TNF-α [4]": {"system": "TNF-α", "assay": "Lung neutrophilia induced by bacterial lipopolysaccharide in male BALB/cJ mice: TNF-α in BALF", "type": "in vivo", "conditions": "2.5 mg i.p.; 24 hours after LPS", "experimental": "as §4, §5"}, "TNF-α [5]": {"system": "TNF-α", "assay": "Lipopolysaccharide induced TNF-α production in Balb/cJ mice", "type": "in vivo", "conditions": "Mus musculus, ip, 1.5 h; 10 mg/kg intraperitoneally, 30 min before LPS; 90 min after LPS; read-out: % inhibition of TNF-α production (plasma)", "experimental": "Male Balb/cJ mice (Iffa Credo, France) weighing 25-33 g were randomly grouped (n=7 in test group, 7 in positive control group, 4 in negative control group). Test compounds, as well as vehicle [0.125% carboxymethyl-cellulose (Sigma, USA)], were administered to the mice intraperitoneally. Test compounds were administered at a dose of 10 mg/kg of body weight, in a volume of 10 mL/kg of body weight. Thirty minutes later, a sterile solution of lipopolysaccharide (LPS) (Sigma, USA) in saline was intraperitoneally administered at a concentration and volume of 25 μg/0.2 mL/mouse to each animal, except those in negative control. Ninety minutes following administration, all animals were sacrificed by puncturing a. carotis communis. The plasma concentration of TNF-α was determined by sandwich ELISA, using capture and detection antibodies (R&D, USA) according to manufacturer's recommendations. Results are presented in the following table as percent of inhibition of TNF-α production in comparison to the positive control (stimulated, but untreated animals)."}, "IL-6 [6]": {"system": "IL-6", "assay": "Lung neutrophilia induced by bacterial lipopolysaccharide in male BALB/cJ mice: IL-6 in BALF", "type": "in vivo", "conditions": "2.5 mg i.p.; 24 hours after LPS", "experimental": "as §4, §5"}, "granulocytes [7]": {"system": "granulocytes", "assay": "Inhibition of degranulation of granulocytes (free neutrophil elastase activity)", "type": "cell-based, human", "conditions": "Homo sapiens, Neutrophil, compound 50 μM, read-out: Percentage of inhibition of degranulation of granulocytes", "experimental": "as §2\n1×10^6 granulocytes, isolated as described above, were resuspended in RPMI-1640 medium (Institute of Immunology, Croatia), and were incubated with 10 or 50 μM of test compound together with cytochalasine B (5 μg/mL) for 2 h at 37° C. Degranulation then was induced by the addition of 0.1 μM fMLP (Sigma, USA) or 0.5 μM A23187 (Calbiochem, USA). The activity of free neutrophil elastase was determined with a chromogenic substrate specific for human neutrophil elastase, such as N-(methoxysuccinyl)-L-alanyl-L-alanyl-L-prolyl-L-valine 4-nitroanilide (Sigma Chemical Company, St Louis, Mo., USA). Elastase activity, as a marker of primary granules, was assessed in supernatant using a spectrophotometer at an absorbance of 405 nm.\nResults are expressed as the percent of inhibition of degranulation in unstimulated cells, and in stimulated cells treated with fMLP or A23187."}}, "note": "Like-named read-outs stand apart in the source and are kept apart here."}
{"smiles": "CC[C@H]1OC(=O)[C@H](C)[C@@H](O[C@H]2C[C@@](C)(OC)[C@@H](OCCCN)[C@H](C)O2)[C@H](C)[C@@H](O[C@@H]2O[C@H](C)C[C@H](N(C)C)[C@H]2O)[C@](C)(O)C[C@@H](C)CN(C)[C@H](C)[C@H]2OC(=O)O[C@@]21C", "note": "[Example 51C, 11,12-Carbonate-11,12-dideoxy-4″-O-(3-aminopropyl)-azithromycin]", "values": [{"measurement": "Percentage of inhibition of cell growth", "setting": "A549; 12.5 μM", "value": 0, "unit": "%"}, {"measurement": "Percentage of inhibition of cell growth", "setting": "A549; 50 μM", "value": 0, "unit": "%"}, {"measurement": "Percentage of inhibition of cell growth", "setting": "Hep G2; 12.5 μM", "value": 15, "unit": "%"}, {"measurement": "Percentage of inhibition of cell growth", "setting": "Hep G2; 50 μM", "value": 7, "unit": "%"}, {"measurement": "Uptake (% azithromycin)", "setting": "granulocytes [1]", "value": 122, "unit": "% azithromycin"}, {"measurement": "inhibition at 10 µM", "setting": "IL-8; LPS-stimulated PBL", "value": 0, "unit": "%"}, {"measurement": "inhibition at 10 µM", "setting": "IL-8; PMA-stimulated PBL", "value": 12, "unit": "%"}, {"measurement": "inhibition at 10 µM", "setting": "IL-8; zymosan-stimulated PBL", "value": 26, "unit": "%"}, {"measurement": "inhibition at 50 µM", "setting": "IL-8; LPS-stimulated PBL", "value": 0, "unit": "%"}, {"measurement": "inhibition at 50 µM", "setting": "IL-8; PMA-stimulated PBL", "value": 0, "unit": "%"}, {"measurement": "inhibition at 50 µM", "setting": "IL-8; zymosan-stimulated PBL", "value": 0, "unit": "%"}, {"measurement": "inhibition at 10 µM", "setting": "IL-1α; LPS-stimulated PBL", "value": 2, "unit": "%"}, {"measurement": "inhibition at 10 µM", "setting": "IL-1α; PMA-stimulated PBL", "value": 0, "unit": "%"}, {"measurement": "inhibition at 10 µM", "setting": "IL-1α; zymosan-stimulated PBL", "value": 62, "unit": "%"}, {"measurement": "inhibition at 50 µM", "setting": "IL-1α; LPS-stimulated PBL", "value": 0, "unit": "%"}, {"measurement": "inhibition at 50 µM", "setting": "IL-1α; PMA-stimulated PBL", "value": 0, "unit": "%"}, {"measurement": "inhibition at 50 µM", "setting": "IL-1α; zymosan-stimulated PBL", "value": 0, "unit": "%"}, {"measurement": "inhibition at 10 µM", "setting": "TNF-α [2]; LPS-stimulated PBL", "value": 5, "unit": "%"}, {"measurement": "inhibition at 10 µM", "setting": "TNF-α [2]; PMA-stimulated PBL", "value": 18, "unit": "%"}, {"measurement": "inhibition at 10 µM", "setting": "TNF-α [2]; zymosan-stimulated PBL", "value": 38, "unit": "%"}, {"measurement": "inhibition at 50 µM", "setting": "TNF-α [2]; LPS-stimulated PBL", "value": 0, "unit": "%"}, {"measurement": "inhibition at 50 µM", "setting": "TNF-α [2]; PMA-stimulated PBL", "value": 4, "unit": "%"}, {"measurement": "inhibition at 50 µM", "setting": "TNF-α [2]; zymosan-stimulated PBL", "value": 0, "unit": "%"}, {"measurement": "inhibition at 10 µM", "setting": "IL-6 [3]; LPS-stimulated PBL", "value": 4, "unit": "%"}, {"measurement": "inhibition at 10 µM", "setting": "IL-6 [3]; PMA-stimulated PBL", "value": 27, "unit": "%"}, {"measurement": "inhibition at 10 µM", "setting": "IL-6 [3]; zymosan-stimulated PBL", "value": 42, "unit": "%"}, {"measurement": "inhibition at 50 µM", "setting": "IL-6 [3]; LPS-stimulated PBL", "value": 0, "unit": "%"}, {"measurement": "inhibition at 50 µM", "setting": "IL-6 [3]; PMA-stimulated PBL", "value": 6, "unit": "%"}, {"measurement": "inhibition at 50 µM", "setting": "IL-6 [3]; zymosan-stimulated PBL", "value": 0, "unit": "%"}]}
{"smiles": "CC[C@H]1OC(=O)[C@H](C)[C@@H](O[C@H]2C[C@@](C)(OC)C(OC(=O)CCN(CC)CC)[C@H](C)O2)[C@H](C)[C@@H](O[C@@H]2O[C@H](C)C[C@H](N(C)C(C)=O)[C@H]2O)[C@](C)(OC)C[C@@H](C)C(=O)N[C@H](C)[C@@H](O)[C@]1(C)O", "note": "(stereo partly drawn) [Example 62, 3′-N-methyl-3′-N-acetyl-4″-O-(3-diethylaminopropionyl)-6-O-methyl-9a-aza-9a-homoerythromycin A]", "values": [{"measurement": "% decrease of neutrophils in BALF", "setting": "neutrophils", "value": 13, "unit": "%"}, {"measurement": "% decrease of total cell no. in BALF", "setting": "neutrophils", "value": 47, "unit": "%"}, {"measurement": "Percentage of decrease of TNF-α concentration in BALF", "setting": "TNF-α [4]", "value": 62, "unit": "%"}, {"measurement": "inhibition in vivo at 10 mg/kg", "setting": "TNF-α [5]", "value": 59, "unit": "%"}, {"measurement": "Percentage of decrease of IL-6 concentration in BALF", "setting": "IL-6 [6]", "value": 22, "unit": "%"}]}
{"smiles": "CC[C@H]1OC(=O)[C@H](C)[C@@H](O[C@H]2C[C@@](C)(OC)[C@@H](O)[C@H](C)O2)[C@H](C)[C@@H](O[C@@H]2O[C@H](C)C[C@H](N(C)C)[C@H]2O)[C@](C)(O)C[C@@H](C)C(=O)[C@H](C)[C@@H](O)[C@]1(C)O", "note": "[erythromycin, reference compound]", "values": [{"measurement": "inhibition at 50 µM", "setting": "granulocytes [7]; A23187 0.5 μM", "value": 0, "unit": "%"}, {"measurement": "inhibition at 50 µM", "setting": "granulocytes [7]; fMLP 0.1 μM", "value": 23, "unit": "%"}]}
